Patent publication US20230065745A1, “PIPERIDINE-2,6-DIONE DERIVATIVES WHICH BIND TO CEREBLON, AND METHODS OF USE THEREOF” (Captor Therapeutics S.A., priority 2019, published 2023)
pKi: −log10 of the molar value.

Key:
IKZF1 = IKZF1 degradation assay, H929 cell line (Western blot densitometry); assay type: cell-based; conditions: 20 μM
Method: Cells were seeded on 6- or 12-well plates, and the compounds to be tested were added at the desired concentration range. […] After 6 or 24 h incubation (3TC, 5% CO2), cells were harvested, washed and cell lysates were prepared using RIPA lysis buffer. The amount of protein was determined via BCA assay, and the appropriate quantity was then loaded on the precast gel for the protein separation. After primary and secondary Ab staining, the membranes were washed and signals developed. The densitometry analysis was implemented to obtain the numeric values used later in the protein level evaluation process. […] The treatment with all compounds was carried out for 24 h.

[1] = molecular target: CRBN-DDB1 protein complex (Homo sapiens, UniProt Q96SW2); experiment: Fluorescence Polarization (FP) assay, displacement of Cy5-labelled thalidomide; conditions: 25 nM CRBN-DDB1, 5 nM Cy5-labelled thalidomide, read-out: CRBN binding Ki
CRBN-DDB1 protein complex, sequence (Q96SW2 whole entry): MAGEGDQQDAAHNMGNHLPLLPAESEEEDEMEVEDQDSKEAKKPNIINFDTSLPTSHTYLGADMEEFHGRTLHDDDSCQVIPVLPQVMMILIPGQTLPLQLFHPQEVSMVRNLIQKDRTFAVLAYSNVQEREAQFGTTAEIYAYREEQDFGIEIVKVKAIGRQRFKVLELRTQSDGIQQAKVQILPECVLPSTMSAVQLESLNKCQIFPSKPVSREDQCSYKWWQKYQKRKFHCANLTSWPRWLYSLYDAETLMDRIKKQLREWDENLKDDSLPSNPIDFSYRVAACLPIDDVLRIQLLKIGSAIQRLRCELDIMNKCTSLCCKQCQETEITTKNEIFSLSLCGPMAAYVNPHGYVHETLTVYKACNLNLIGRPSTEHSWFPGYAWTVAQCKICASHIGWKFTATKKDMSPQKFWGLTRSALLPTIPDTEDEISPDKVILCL
CRBN-DDB1 protein complex, sequence (Q16531 whole entry partner): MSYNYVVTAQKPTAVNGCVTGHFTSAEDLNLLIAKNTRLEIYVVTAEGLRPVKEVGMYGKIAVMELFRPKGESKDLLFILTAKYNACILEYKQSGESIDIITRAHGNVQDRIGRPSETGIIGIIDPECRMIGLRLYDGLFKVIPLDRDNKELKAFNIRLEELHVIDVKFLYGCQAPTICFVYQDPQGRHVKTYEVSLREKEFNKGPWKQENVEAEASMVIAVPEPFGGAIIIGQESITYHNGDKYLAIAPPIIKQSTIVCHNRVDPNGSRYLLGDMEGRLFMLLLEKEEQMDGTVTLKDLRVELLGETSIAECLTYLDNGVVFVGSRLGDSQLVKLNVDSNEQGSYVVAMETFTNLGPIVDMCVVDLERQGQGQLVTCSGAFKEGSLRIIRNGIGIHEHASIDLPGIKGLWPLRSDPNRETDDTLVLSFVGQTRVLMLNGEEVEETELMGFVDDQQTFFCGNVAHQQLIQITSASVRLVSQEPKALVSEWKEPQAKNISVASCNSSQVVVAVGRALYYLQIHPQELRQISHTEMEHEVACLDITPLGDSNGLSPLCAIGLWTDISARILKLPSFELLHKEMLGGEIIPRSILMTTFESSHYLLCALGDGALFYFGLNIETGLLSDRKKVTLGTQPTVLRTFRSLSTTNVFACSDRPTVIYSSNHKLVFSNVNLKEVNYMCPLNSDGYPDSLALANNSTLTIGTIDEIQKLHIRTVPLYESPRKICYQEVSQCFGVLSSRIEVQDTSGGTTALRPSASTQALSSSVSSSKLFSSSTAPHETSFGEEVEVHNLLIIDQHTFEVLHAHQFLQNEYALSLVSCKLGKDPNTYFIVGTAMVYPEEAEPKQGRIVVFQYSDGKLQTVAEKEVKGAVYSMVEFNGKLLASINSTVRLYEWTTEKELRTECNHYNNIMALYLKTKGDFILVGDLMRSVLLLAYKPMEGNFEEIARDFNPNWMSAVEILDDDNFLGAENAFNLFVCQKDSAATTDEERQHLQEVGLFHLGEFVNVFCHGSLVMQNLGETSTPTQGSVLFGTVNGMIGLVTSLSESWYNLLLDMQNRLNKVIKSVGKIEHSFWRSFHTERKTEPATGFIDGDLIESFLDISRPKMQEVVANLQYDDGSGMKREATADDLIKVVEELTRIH
Method: CRBN-DDB1 protein complex was mixed with Cy5-labelled thalidomide and a compound to be tested (the “test compound”). […] The test solution was added to a 384-well assay plate.
The plate was spun-down (1 min, 1000 rpm, 22° C.) and then shaken using a VibroTurbulator for 10 min at room temperature (20-25° C.), with the frequency set to level 3. The assay plate with protein and the tracer was incubated for 60 min at room temperature (20-25° C.) prior to read-out with a plate reader.
The FP experiment was carried out with various concentrations of the test compounds in order to measure Ki values.

CK1α = CK1α degradation assay, Kelly cell line (Western blot densitometry); assay type: cell-based; conditions: 24 h
Method: Cells were seeded on 6-well plates, and the compounds to be tested were added at the desired concentration range. […] After 24 h incubation (37° C., 5% CO2), cells were washed and cell lysates were prepared using RIPA lysis buffer. The amount of protein was determined via BCA assay, and the appropriate quantity was then loaded on the precast gel for the protein separation. After primary and secondary Ab staining, the membranes were washed and signals developed. The densitometry analysis was implemented to obtain the numeric values used later in the protein level evaluation process.
The treatment with all compounds was carried out for 24 h.
Densitometry values are normalized to the loading control ((3-ACTIN) and presented as % of DMSO control, using the following labels: […]

Row | SMILES | % of IKZF1 protein reduction, IKZF 1 (24 H, 20 μM) (IKZF1) | pKi [1] | % of CK1α protein reduction, based on densitometry values (CK1α; 20 μM) | % of CK1α protein reduction, based on densitometry values (CK1α; 1 μM) | % of CK1α protein reduction, based on densitometry values (CK1α; 10 μM)
1 | COc1csc(NC(C)=O)c1C(=O)NC1CCC(=O)NC1=O (stereo not drawn) [Compound 8, N-(2,6-dioxopiperidin-3-yl)-2-acetamido-4-methoxythiophene-3-carboxamide] | ≤25% (≤25% for 0-25% of IKZF1 protein reduction) | 5.00 to 5.30 | – | – | –
2 | CC(=O)Nc1sc(C#N)cc1C(=O)NC1CCC(=O)NC1=O (stereo not drawn) [Compound 9, 5-cyano-N-(2,6-dioxopiperidin-3-yl)-2-acetamidothiophene-3-carboxamide] | ≤25% (≤25% for 0-25% of IKZF1 protein reduction) | > 5.30 | – | – | –
3 | CC(=O)Nc1sc(Cl)cc1C(=O)NC1CCC(=O)NC1=O (stereo not drawn) [Compound 12, 5-Chloro-N-(2,6-dioxopiperidin-3-yl)-2-acetamidothiophene-3-carboxamide] | ≤25% (≤25% for 0-25% of IKZF1 protein reduction) | 5.00 to 5.30 | – | – | –
4 | CS(=O)(=O)Nc1sccc1C(=O)NC1CCC(=O)NC1=O (stereo not drawn) [Compound 13, N-(2,6-dioxopiperidin-3-yl)-2-methanesulfonamidothiophene-3-carboxamide] | ≤25% (≤25% for 0-25% of IKZF1 protein reduction) | 5.00 to 5.30 | – | – | –
5 | CNC(=O)c1cc(C(=O)NC2CCC(=O)NC2=O)c(NC(C)=O)s1 (stereo not drawn) [Compound 14, 5-acetamido-N^4-(2,6-dioxopiperidin-3-yl)-5-acetamido-N^2-methylthiophene-2,4-dicarboxamide] | ≤25% (≤25% for 0-25% of IKZF1 protein reduction) | 5.00 to 5.30 | – | – | –
6 | CNc1sc(Cl)cc1C(=O)NC1CCC(=O)NC1=O (stereo not drawn) [Compound 16, 5-chloro-N-(2,6-dioxopiperidin-3-yl)-2-(methylamino)thiophene-3-carboxamide] | ≤25% (≤25% for 0-25% of IKZF1 protein reduction) | > 5.30 | – | – | –
7 | C[C@H](O)C(=O)Nc1sc(Cl)cc1C(=O)NC1CCC(=O)NC1=O (stereo partly drawn) [Compound 17, 5-chloro-N-(2,6-dioxopiperidin-3-yl)-2-[(2S)-2-hydroxypropanamido]thiophene-3-carboxamide] | ≤25% (≤25% for 0-25% of IKZF1 protein reduction) | 4.30 to 5.00 | – | – | –
8 | CC(=O)Nc1cc(Cl)sc1C(=O)NC1CCC(=O)NC1=O (stereo not drawn) [Compound 18, 5-chloro-N-(2,6-dioxopiperidin-3-yl)-3-acetamidothiophene-2-carboxamide] | ≤25% (≤25% for 0-25% of IKZF1 protein reduction) | 4.30 to 5.00 | – | – | –
9 | CC(=O)Nc1sc(C2CC2)c(Cl)c1C(=O)NC1CCC(=O)NC1=O (stereo not drawn) [Compound 19, 4-chloro-5-cyclopropyl-N-(2,6-dioxopiperidin-3-yl)-2-acetamidothiophene-3-carboxamide] | ≤25% (≤25% for 0-25% of IKZF1 protein reduction) | 5.00 to 5.30 | – | – | –
10 | COc1sccc1C(=O)N[C@H]1CCC(=O)NC1=O [Compound 21, (S)—N-(2,6-dioxopiperidin-3-yl)-2-methoxythiophene-3-carboxamide] | ≤25% (≤25% for 0-25% of IKZF1 protein reduction) | > 5.30 | >25% (>25% for 26-74% of CK1α protein reduction) | – | –
11 | COc1sccc1C(=O)N[C@@H]1CCC(=O)NC1=O [Compound 22, (R)—N-(2,6-dioxopiperidin-3-yl)-2-methoxythiophene-3-carboxamide] | ≤25% (≤25% for 0-25% of IKZF1 protein reduction) | 4.30 to 5.00 | >25% (>25% for 26-74% of CK1α protein reduction) | – | –
12 | Nc1sccc1C(=O)NC1CCC(=O)NC1=O (stereo not drawn) [Compound 36, 2-amino-N-(2,6-dioxopiperidin-3-yl)thiophene-3-carboxamide] | ≤25% (≤25% for 0-25% of IKZF1 protein reduction) | > 5.30 | – | – | –
13 | COc1sc(Cl)cc1C(=O)NC1CCC(=O)NC1=O (stereo not drawn) [Compound 37, 5-chloro-N-(2,6-dioxopiperidin-3-yl)-2-methoxythiophene-3-carboxamide] | ≤25% (≤25% for 0-25% of IKZF1 protein reduction) | > 5.30 | – | – | –
14 | Nc1sc(Cl)cc1C(=O)NC1CCC(=O)NC1=O (stereo not drawn) [Compound 40, 2-amino-5-chloro-N-(2,6-dioxopiperidin-3-yl)thiophene-3-carboxamide] | ≤25% (≤25% for 0-25% of IKZF1 protein reduction) | > 5.30 | – | – | –
15 | CC(=O)Nc1sc(C(F)(F)F)cc1C(=O)NC1CCC(=O)NC1=O (stereo not drawn) [Compound 42, N-(2,6-dioxopiperidin-3-yl)-2-acetamido-5-(trifluoromethyl)thiophene-3-carboxamide] | ≤25% (≤25% for 0-25% of IKZF1 protein reduction) | 5.00 to 5.30 | – | – | –
16 | CC(=O)Nc1scc(Cl)c1C(=O)NC1CCC(=O)NC1=O (stereo not drawn) [Compound 43, 4-chloro-N-(2,6-dioxopiperidin-3-yl)-2-acetamidothiophene-3-carboxamide] | ≤25% (≤25% for 0-25% of IKZF1 protein reduction) | 4.30 to 5.00 | – | – | –
17 | CC(=O)Nc1sc(C2CC2)cc1C(=O)NC1CCC(=O)NC1=O (stereo not drawn) [Compound 44, 5-cyclopropyl-N-(2,6-dioxopiperidin-3-yl)-2-acetamidothiophene-3-carboxamide] | ≤25% (≤25% for 0-25% of IKZF1 protein reduction) | > 5.30 | – | – | –
18 | O=C1CCC(NC(=O)c2cc(Cl)sc2NC(=O)Cc2ccccc2)C(=O)N1 (stereo not drawn) [Compound 46, 5-chloro-N-(2,6-dioxopiperidin-3-yl)-2-(2-phenylacetamido)thiophene-3-carboxamide] | ≤25% (≤25% for 0-25% of IKZF1 protein reduction) | 5.00 to 5.30 | – | – | –
19 | COc1cscc1C(=O)NC1CCC(=O)NC1=O (stereo not drawn) [Compound 54, N-(2,6-dioxopiperidin-3-yl)-4-methoxythiophene-3-carboxamide] | – | > 5.30 | >25% (>25% for 26-74% of CK1α protein reduction) | >25% (>25% for 26-74% of CK1α protein reduction) | >25% (>25% for 26-74% of CK1α protein reduction)
20 | O=C1CCC(NC(=O)c2csc(-c3ccccc3)c2)C(=O)N1 (stereo not drawn) [Compound 57, N-(2,6-dioxopiperidin-3-yl)-5-phenylthiophene-3-carboxamide] | ≤25% (≤25% for 0-25% of IKZF1 protein reduction) | > 5.30 | – | – | –
21 | CC(C)(C)OC(=O)Nc1ncc(C(=O)NC2CCC(=O)NC2=O)s1 (stereo not drawn) [Compound 71, tert-butyl (5-((2,6-dioxopiperidin-3-yl)carbamoyl)thiazol-2-yl)carbamate] | ≤25% (≤25% for 0-25% of IKZF1 protein reduction) | > 5.30 | – | – | –
22 | CC(C)(C)c1ncc(C(=O)NC2CCC(=O)NC2=O)s1 (stereo not drawn) [Compound 73, 2-(tert-butyl)-N-(2,6-dioxopiperidin-3-yl)thiazole-5-carboxamide] | ≤25% (≤25% for 0-25% of IKZF1 protein reduction) | 4.30 to 5.00 | – | – | –
23 | O=C1CCC(NC(=O)c2cnc(CNC(=O)OCc3ccccc3)s2)C(=O)N1 (stereo not drawn) [Compound 74, benzyl ((5-((2,6-dioxopiperidin-3-yl)carbamoyl)thiazol-2-yl)methyl)carbamate] | ≤25% (≤25% for 0-25% of IKZF1 protein reduction) | 4.30 to 5.00 | – | – | –
24 | COc1ncc(C(=O)NC2CCC(=O)NC2=O)s1 (stereo not drawn) [Compound 75, N-(2,6-dioxopiperidin-3-yl)-2-methoxythiazole-5-carboxamide] | ≤25% (≤25% for 0-25% of IKZF1 protein reduction) | 4.30 to 5.00 | – | – | –
25 | CSc1ncc(C(=O)NC2CCC(=O)NC2=O)s1 (stereo not drawn) [Compound 76, N-(2,6-dioxopiperidin-3-yl)-2-(methylthio)thiazole-5-carboxamide] | ≤25% (≤25% for 0-25% of IKZF1 protein reduction) | 4.30 to 5.00 | – | – | –
